Values quoted from earlier work as cited in paper PMC8177775 (Cancer Science, 2021).
Like-named read-outs stand apart in the source and are kept apart here.

Tested on: advanced solid tumors or lymphomas
Conditions: cited from earlier work

For `CC1(C)CCC2(CC1)N[C@@H](C(=O)N[C@@H]1CC[C@@H](C(N)=O)OC1)[C@H](c1ccnc(Cl)c1F)[C@]21C(=O)Nc2cc(Cl)ccc21` [milademetan, Milademetan], the “MTD in US phase I study” value (once-daily 21/28-day schedule) is listed as 120 mg and the “MTD in US phase I study” value (once-daily 28/28-day schedule) is listed as 90 mg.
